Test results reported in PubChem BioAssay AID2060885 (Molecular Pharmacology Branch, DTP, NCI, 2025).

Test system: NCI-H23 complex spheroids with HUVEC/MSC, viability
Test: Anticancer human tumor NCI-H23 cell line growth inhibition [RAS];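 also: spheroids exposed to compound for 7 days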;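 as to viability, T/C: 100% = DMSO vehicle control viability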
Conditions: for IC50: curve of first compound; for viability, T/C: stronger effect = lower value
Outline: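 Tumour cells grown as complex spheroids with HUVEC endothelial cells and mesenchymal stem cells, treated with RAS pathway inhibitor combinations. Each agent spans half-log steps from near clinical Cmax, or 10 microM where Cmax is unknown.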

[1] = second compound 0.00316 µM, first compound 0.000949 µM
[2] = second compound 0.00316 µM, first compound 0.003 µM
[3] = second compound 0.00316 µM, first compound 0.00949 µM
[4] = second compound 0.00316 µM, first compound 0.03 µM
[5] = second compound 0.00316 µM, first compound 0.0949 µM
[6] = second compound 0.00316 µM, first compound 0.3 µM
[7] = second compound 0.01 µM, first compound 0.000949 µM
[8] = second compound 0.01 µM, first compound 0.003 µM
[9] = second compound 0.01 µM, first compound 0.00949 µM
[10] = second compound 0.01 µM, first compound 0.03 µM
[11] = second compound 0.01 µM, first compound 0.0949 µM
[12] = second compound 0.01 µM, first compound 0.3 µM
[13] = second compound 0.0316 µM, first compound 0.000949 µM
[14] = second compound 0.0316 µM, first compound 0.003 µM
[15] = second compound 0.0316 µM, first compound 0.00949 µM
[16] = second compound 0.0316 µM, first compound 0.03 µM
[17] = second compound 0.0316 µM, first compound 0.0949 µM
[18] = second compound 0.0316 µM, first compound 0.3 µM
[19] = second compound 0.1 µM, first compound 0.000949 µM
[20] = second compound 0.1 µM, first compound 0.003 µM
[21] = second compound 0.1 µM, first compound 0.00949 µM
[22] = second compound 0.1 µM, first compound 0.03 µM
[23] = second compound 0.1 µM, first compound 0.0949 µM
[24] = second compound 0.1 µM, first compound 0.3 µM
[25] = second compound 0.316 µM, first compound 0.000949 µM
[26] = second compound 0.316 µM, first compound 0.003 µM
[27] = second compound 0.316 µM, first compound 0.00949 µM
[28] = second compound 0.316 µM, first compound 0.03 µM
[29] = second compound 0.316 µM, first compound 0.0949 µM
[30] = second compound 0.316 µM, first compound 0.3 µM
[31] = second compound 1 µM, first compound 0.000949 µM
[32] = second compound 1 µM, first compound 0.003 µM
[33] = second compound 1 µM, first compound 0.00949 µM
[34] = second compound 1 µM, first compound 0.03 µM
[35] = second compound 1 µM, first compound 0.0949 µM
[36] = second compound 1 µM, first compound 0.3 µM

`CC1(C)CCC(Nc2ncc(C(F)(F)F)c(-c3c[nH]c4c(P(C)(C)=O)c(C#N)ccc34)n2)CN1` (stereo unspecified) + C=CC(=O)N1CCN(c2nc(OCC3CCCN3C)nc3c(F)c(-c4nc(N)cc(C)c4C(F)(F)F)c(Cl)cc23)C(C)C1 gave an IC50 (second compound 0.00316 µM) of 1110 pM, an IC50 (second compound 0.01 µM) of under 949 pM and an IC50 (second compound 0.0316 µM) of under 949 pM. It also gave an IC50 (second compound 0.1 µM) of under 949 pM, an IC50 (second compound 0.316 µM) of under 949 pM and an IC50 (second compound 1 µM) of under 949 pM. The viability, T/C [1] was 50.9%, the viability, T/C [2] was 41.2% and the viability, T/C [3] was 37%. The viability, T/C [4] was 25.2%, the viability, T/C [5] was 26.9% and the viability, T/C [6] was 27.6%. The viability, T/C [7] was 36.5%, the viability, T/C [8] was 38.3% and the viability, T/C [9] was 24.9%. The viability, T/C [10] was 24%, the viability, T/C [11] was 22.5% and the viability, T/C [12] was 20%. It also gave a viability, T/C [13] of 33.6%, a viability, T/C [14] of 27.2% and a viability, T/C [15] of 23.2%. For the same compound, the viability, T/C [16] was 21%, the viability, T/C [17] was 21.2% and the viability, T/C [18] was 18.2%. The viability, T/C [19] was 29.8%, the viability, T/C [20] was 28.9% and the viability, T/C [21] was 23.1%. The viability, T/C [22] was 21.3%, the viability, T/C [23] was 19.2% and the viability, T/C [24] was 19.4%. The viability, T/C [25] was 30.1%, the viability, T/C [26] was 30.4% and the viability, T/C [27] was 24.1%. For the same compound, the viability, T/C [28] was 20.7%, the viability, T/C [29] was 20.6% and the viability, T/C [30] was 19.5%. For the same compound, the viability, T/C [31] was 29.3%, the viability, T/C [32] was 28.7% and the viability, T/C [33] was 27.5%. It also gave a viability, T/C [34] of 22.4%, a viability, T/C [35] of 23.6% and a viability, T/C [36] of 20.5%.
With `CCc1c2c(nc3ccc(O)cc13)-c1cc3c(c(=O)n1C2)COC(=O)[C@]3(O)CC` + C=CC(=O)N1CCN(c2nc(OCC3CCCN3C)nc3c(F)c(-c4nc(N)cc(C)c4C(F)(F)F)c(Cl)cc23)C(C)C1 the IC50 (second compound 0.00316 µM) was under 949 pM, the IC50 (second compound 0.01 µM) was under 949 pM and the IC50 (second compound 0.0316 µM) was under 949 pM. For the same compound, the IC50 (second compound 0.1 µM) was under 949 pM, the IC50 (second compound 0.316 µM) was under 949 pM and the IC50 (second compound 1 µM) was under 949 pM. The viability, T/C [1] was 41.6%, the viability, T/C [2] was 33.6% and the viability, T/C [3] was 11.7%. It also gave a viability, T/C [4] of 3.8%, a viability, T/C [5] of 2.71% and a viability, T/C [6] of 2.26%. It also gave a viability, T/C [7] of 40.6%, a viability, T/C [8] of 26% and a viability, T/C [9] of 8.37%. It also gave a viability, T/C [10] of 3.98%, a viability, T/C [11] of 2.14% and a viability, T/C [12] of 1.54%. It also gave a viability, T/C [13] of 33.3%, a viability, T/C [14] of 22.2% and a viability, T/C [15] of 9.5%. The viability, T/C [16] was 4.43%, the viability, T/C [17] was 2.52% and the viability, T/C [18] was 1.84%. For the same compound, the viability, T/C [19] was 32.5%, the viability, T/C [20] was 19.6% and the viability, T/C [21] was 6.47%. For the same compound, the viability, T/C [22] was 3.28%, the viability, T/C [23] was 2.14% and the viability, T/C [24] was 2.49%. It also gave a viability, T/C [25] of 27.8%, a viability, T/C [26] of 17.5% and a viability, T/C [27] of 7.44%. For the same compound, the viability, T/C [28] was 3.62%, the viability, T/C [29] was 2.47% and the viability, T/C [30] was 3.05%. The viability, T/C [31] was 25.9%, the viability, T/C [32] was 21.2% and the viability, T/C [33] was 8.12%. For the same compound, the viability, T/C [34] was 4.94%, the viability, T/C [35] was 2.44% and the viability, T/C [36] was 2.51%.
Compound `C=CC(=O)Nc1cc(Nc2nccc(-c3cn(C)c4ccccc34)n2)c(OC)cc1N(C)CCN(C)C` + CCn1c(-c2cc(N3CCN(C)CC3)cnc2C(C)OC)c2c3cc(ccc31)-c1csc(n1)CC(NC(=O)C1CC1C)C(=O)N1CCCC(N1)C(=O)OCC(C)(C)C2 has an IC50 (second compound 0.000949 µM) of under 3160 pM, an IC50 (second compound 0.003 µM) of under 3160 pM and an IC50 (second compound 0.00949 µM) of under 3160 pM. For the same compound, the IC50 (second compound 0.03 µM) was under 3160 pM, the IC50 (second compound 0.0949 µM) was under 3160 pM and the IC50 (second compound 0.3 µM) was under 3160 pM. The viability, T/C (second compound 0.000949 µM, first compound 0.00316 µM) was 51.5%, the viability, T/C (second compound 0.000949 µM, first compound 0.01 µM) was 45.7% and the viability, T/C (second compound 0.000949 µM, first compound 0.0316 µM) was 34.4%. It also gave a viability, T/C (second compound 0.000949 µM, first compound 0.1 µM) of 50.4%, a viability, T/C (second compound 0.000949 µM, first compound 0.316 µM) of 31.4% and a viability, T/C (second compound 0.000949 µM, first compound 1 µM) of 27.6%. For the same compound, the viability, T/C (second compound 0.003 µM, first compound 0.00316 µM) was 35.8%, the viability, T/C (second compound 0.003 µM, first compound 0.01 µM) was 32.6% and the viability, T/C (second compound 0.003 µM, first compound 0.0316 µM) was 30.1%. The viability, T/C (second compound 0.003 µM, first compound 0.1 µM) was 29.8%, the viability, T/C (second compound 0.003 µM, first compound 0.316 µM) was 27.1% and the viability, T/C (second compound 0.003 µM, first compound 1 µM) was 19%. For the same compound, the viability, T/C (second compound 0.00949 µM, first compound 0.00316 µM) was 30.7%, the viability, T/C (second compound 0.00949 µM, first compound 0.01 µM) was 27.9% and the viability, T/C (second compound 0.00949 µM, first compound 0.0316 µM) was 29.3%. It also gave a viability, T/C (second compound 0.00949 µM, first compound 0.1 µM) of 25.4%, a viability, T/C (second compound 0.00949 µM, first compound 0.316 µM) of 22.1% and a viability, T/C (second compound 0.00949 µM, first compound 1 µM) of 15.6%. It also gave a viability, T/C (second compound 0.03 µM, first compound 0.00316 µM) of 27.5%, a viability, T/C (second compound 0.03 µM, first compound 0.01 µM) of 23.6% and a viability, T/C (second compound 0.03 µM, first compound 0.0316 µM) of 29.1%. It also gave a viability, T/C (second compound 0.03 µM, first compound 0.1 µM) of 25%, a viability, T/C (second compound 0.03 µM, first compound 0.316 µM) of 17.5% and a viability, T/C (second compound 0.03 µM, first compound 1 µM) of 15%. The viability, T/C (second compound 0.0949 µM, first compound 0.00316 µM) was 18.7%, the viability, T/C (second compound 0.0949 µM, first compound 0.01 µM) was 19.6% and the viability, T/C (second compound 0.0949 µM, first compound 0.0316 µM) was 22.2%. For the same compound, the viability, T/C (second compound 0.0949 µM, first compound 0.1 µM) was 16.4%, the viability, T/C (second compound 0.0949 µM, first compound 0.316 µM) was 8.97% and the viability, T/C (second compound 0.0949 µM, first compound 1 µM) was 12.2%. It also gave a viability, T/C (second compound 0.3 µM, first compound 0.00316 µM) of 16.5%, a viability, T/C (second compound 0.3 µM, first compound 0.01 µM) of 18.1% and a viability, T/C (second compound 0.3 µM, first compound 0.0316 µM) of 17.2%. For the same compound, the viability, T/C (second compound 0.3 µM, first compound 0.1 µM) was 12.3%, the viability, T/C (second compound 0.3 µM, first compound 0.316 µM) was 10.5% and the viability, T/C (second compound 0.3 µM, first compound 1 µM) was 11.8%.
